Experimental data: patent US20210220434A1, “Treatment of Vascular Occlusion by Activation of Notch Signaling” (The Regents of the University of California, priority 2018, published 2021)

Tests used:
[1] = system: distal middle cerebral artery occlusion (dMCAO) mouse model; assay: Collateral artery size and function after dMCAO stroke induction; format: in vivo
From the text: (§1) FIGS. 6A, 6B, and 6C. […] FIG. 6A depicts the time course of the experiment, with recombinant DLL4 administered one day prior to and for seven days following dMCAO stroke induction. FIG. 6B: Collateral artery diameter, velocity, and flux, and the area between the vertical lines denotes the period of DLL4 administration. Triangles: rDLL4, Circles: Control. Control, n=5, Treated; n=5. *P<0.05, **P<0.01. FIG. 6C depicts ladder test results for mice are subject to behavior test at 15 to 17 days after experimental stroke, the scores being the average of the two measurements.
(§2) Collateral artery size and function was assessed at seven and fourteen days following injury.

[2] = system: distal middle cerebral artery occlusion (dMCAO) mouse model; assay: Ladder test of neurological function after dMCAO; format: in vivo
From the text: as §1, §2

[3] = wild type C57BL/6J mice, dMCAO, daily iv for eight days from the day before dMCAO, day 7, vs control

rDLL4: recombinant mouse DLL4 (Delta-like ligand 4), a Notch activating ligand, given intravenously
collateral artery size and function (diameter, velocity, flux) ([1]; day 14 after dMCAO, 7 days after administration was halted, vs control): Significant improvements in the treated mice persisted | cerebral blood flow ([1]; following dMCAO, FIG. 6 legend): preserves cerebral blood flow | growth of collaterals ([1]; following dMCAO, FIG. 6 legend): improves growth of collaterals | collateral artery diameter [1, 3]: significantly improved | collateral artery flux [1, 3]: significantly improved | collateral artery velocity [1, 3]: significantly improved | neurological function, ladder test ([2]; day 15 and 17 after dMCAO, vs control): higher in the treated mice | neurological function ([2]; following dMCAO, FIG. 6 legend): improving neurological function
